target: human NEP (Homo sapiens (Human), UniProt P08473); assay: In vitro enzyme inhibition assay at human NEP; details: pKi, recombinant human NEP, fluorogenic peptide substrate, 37° C.
Sequence (P08473 52-750): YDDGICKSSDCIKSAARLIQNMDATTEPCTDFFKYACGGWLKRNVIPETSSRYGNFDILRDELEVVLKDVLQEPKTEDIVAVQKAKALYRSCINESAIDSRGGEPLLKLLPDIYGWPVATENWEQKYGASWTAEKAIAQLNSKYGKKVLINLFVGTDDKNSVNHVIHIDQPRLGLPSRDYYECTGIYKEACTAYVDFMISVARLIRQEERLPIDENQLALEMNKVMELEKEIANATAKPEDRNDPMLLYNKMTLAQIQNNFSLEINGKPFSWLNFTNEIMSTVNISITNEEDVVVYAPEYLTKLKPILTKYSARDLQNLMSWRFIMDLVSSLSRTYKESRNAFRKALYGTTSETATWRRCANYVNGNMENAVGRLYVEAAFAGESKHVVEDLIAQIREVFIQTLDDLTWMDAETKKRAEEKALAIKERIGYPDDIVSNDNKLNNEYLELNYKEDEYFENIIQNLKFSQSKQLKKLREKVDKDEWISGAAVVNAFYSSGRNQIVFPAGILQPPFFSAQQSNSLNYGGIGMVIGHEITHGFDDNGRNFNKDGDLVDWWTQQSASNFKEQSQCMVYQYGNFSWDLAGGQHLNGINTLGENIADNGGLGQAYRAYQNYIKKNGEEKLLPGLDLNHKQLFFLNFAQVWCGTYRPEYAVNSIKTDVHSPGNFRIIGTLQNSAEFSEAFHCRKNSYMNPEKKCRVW

| Ki [nM] | SMILES |
| --- | --- |
| 1.26 to 3.16 | COCCCNC[C@H](C[C@@H](Cc1ccc(-c2cc(Cl)ccc2F)cc1)NC(=O)c1cnn[nH]1)C(=O)O [Example 74, (2S,4S)-5-(5′-Chloro-2′-fluorobiphenyl-4-yl)-2-[(3-methoxypropylamino)-methyl]-4-[(3H-[1,2,3]triazole-4-carbonyl)amino]pentanoic Acid] |
| 1.26 to 3.16 | CN(C)C[C@H](C[C@@H](Cc1ccc(-c2cc(Cl)ccc2F)cc1)NC(=O)c1cnn[nH]1)C(=O)O [Example 75, (2S,4S)-5-(5′-Chloro-2′-fluorobiphenyl-4-yl)-2-dimethylaminomethyl-4-[(3H-[1,2,3]triazole-4-carbonyl)amino]pentanoic Acid] |
| 3.16 to 10 | O=C(N[C@H](Cc1ccc(-c2cc(Cl)ccc2F)cc1)C[C@@H](CNCCF)C(=O)O)c1cnn[nH]1 [Example 81, (2S,4S)-5-(5′-Chloro-2′-fluorobiphenyl-4-yl)-2-[(2-fluoroethylamino)methyl]-4-[(3H-[1,2,3]triazole-4-carbonyl)amino]pentanoic Acid] |
| ≤ 1 | O=C(N[C@H](Cc1ccc(-c2cc(Cl)ccc2F)cc1)C[C@@H](CNCC(F)F)C(=O)O)c1cnn[nH]1 [Example 82a, (2S,4S)-5-(5′-Chloro-2′-fluorobiphenyl-4-yl)-2-[(2,2-difluoroethylamino)methyl]-4-[(3H-[1,2,3]triazole-4-carbonyl)amino]pentanoic Acid] |
| ≤ 1 | O=C(N[C@H](Cc1ccc(-c2cc(Cl)ccc2F)cc1)C[C@@H](CN1CC(O)C1)C(=O)O)c1cnn[nH]1 [Example 83b, (2S,4S)-5-(5′-Chloro-2′-fluorobiphenyl-4-yl)-2-(3-hydroxyazetidin-1-ylmethyl)-4-[(3H-[1,2,3]triazole-4-carbonyl)amino]pentanoic Acid] |
| ≤ 1 | O=C(N[C@H](Cc1ccc(-c2cc(Cl)ccc2F)cc1)C[C@@H](CN1CCC1)C(=O)O)c1cnn[nH]1 [Example 84b, (2S,4S)-2-Azetidin-1-ylmethyl-5-(5′-chloro-2′-fluorobiphenyl-4-yl)-4-[(3H-[1,2,3]triazole-4-carbonyl)amino]pentanoic Acid] |
| ≤ 1 | COCCN(C)C[C@H](C[C@@H](Cc1ccc(-c2cc(Cl)ccc2F)cc1)NC(=O)c1cnn[nH]1)C(=O)O [Example 85a, (2S,4S)-5-(5′-Chloro-2′-fluorobiphenyl-4-yl)-2-{[(2-methoxyethyl)methylamino]methyl}-4-[(3H-[1,2,3]triazole-4-carbonyl)amino]pentanoic Acid] |
| ≤ 1 | O=C(N[C@H](Cc1ccc(-c2cc(Cl)ccc2F)cc1)C[C@@H](CNCCCO)C(=O)O)c1cnn[nH]1 [Example 87b, (2S,4S)-5-(5′-Chloro-2′-fluorobiphenyl-4-yl)-2-[(3-hydroxypropylamino)methyl]-4-[(3H-[1,2,3]triazole-4-carbonyl)amino]pentanoic Acid] |
| ≤ 1 | CC1(C)CN(C[C@H](C[C@@H](Cc2ccc(-c3cc(Cl)ccc3F)cc2)NC(=O)c2cnn[nH]2)C(=O)O)C1 [Example 89b, (2S,4S)-5-(5′-Chloro-2′-fluorobiphenyl-4-yl)-2-(3,3-dimethylazetidin-1-ylmethyl)-4-[(3H-[1,2,3]triazole-4-carbonyl)amino]pentanoic Acid] |
| ≤ 1 | O=C(N[C@H](Cc1ccc(-c2cc(Cl)ccc2F)cc1)C[C@@H](CN1CC(F)C1)C(=O)O)c1cnn[nH]1 [Example 91b, (2S,4S)-5-(5′-Chloro-2′-fluorobiphenyl-4-yl)-2-(3-fluoroazetidin-1-ylmethyl)-4-[(3H-[1,2,3]triazole-4-carbonyl)amino]pentanoic Acid] |

The next lines start with the molecule.

| SMILES | Ki [nM] |
| --- | --- |
| O=C(N[C@H](Cc1ccc(-c2cc(Cl)ccc2F)cc1)C[C@@H](CN1CCOCC1)C(=O)O)c1c[nH]nn1 [Example 69a, (2S,4S)-5-(5′-Chloro-2′-fluorobiphenyl-4-yl)-2-morpholin-4-ylmethyl-4-[(1H-[1,2,3]triazole-4-carbonyl)amino]pentanoic Acid] | 1.26 to 3.16 |
| N#CC1CN(C[C@H](C[C@@H](Cc2ccc(-c3cc(Cl)ccc3F)cc2)NC(=O)c2cnn[nH]2)C(=O)O)C1 [Example 88b, (2S,4S)-5-(5′-Chloro-2′-fluorobiphenyl-4-yl)-2-(3-cyanoazetidin-1-ylmethyl)-4-[(3H-[1,2,3]triazole-4-carbonyl)amino]pentanoic Acid] | ≤ 1 |
| O=C(N[C@H](Cc1ccc(-c2cc(Cl)ccc2F)cc1)C[C@@H](CN1CC(F)(F)C1)C(=O)O)c1cnn[nH]1 [Example 90b, (2S,4S)-5-(5′-Chloro-2′-fluorobiphenyl-4-yl)-2-(3,3-difluoroazetidin-1-ylmethyl)-4-[(3H-[1,2,3]triazole-4-carbonyl)amino]pentanoic Acid] | ≤ 1 |
| O=C(N[C@H](Cc1ccc(-c2cc(Cl)ccc2F)cc1)C[C@@H](CN1CC(CO)(CO)C1)C(=O)O)c1cnn[nH]1 [Example 92b, (2S,4S)-2-(3,3-Bis-hydroxymethylazetidin-1-ylmethyl)-5-(5′-chloro-2′-fluorobiphenyl-4-yl)-4-[(3H-[1,2,3]triazole-4-carbonyl)amino]pentanoic Acid] | ≤ 1 |
| O=C(N[C@H](Cc1ccc(-c2cc(Cl)ccc2F)cc1)C[C@@H](CN1CC(CO)C1)C(=O)O)c1cnn[nH]1 [Example 93b, (2S,4S)-5-(5′-Chloro-2′-fluorobiphenyl-4-yl)-2-(3-hydroxymethyl-azetidin-1-ylmethyl)-4-[(3H-[1,2,3]triazole-4-carbonyl)amino]pentanoic Acid] | ≤ 1 |
| O=C(N[C@H](Cc1ccc(-c2cc(Cl)ccc2F)cc1)C[C@@H](CN1CC[C@@H]1CO)C(=O)O)c1cnn[nH]1 [Example 94b] | ≤ 1 |
| O=C(N[C@H](Cc1ccc(-c2cc(Cl)ccc2F)cc1)C[C@@H](CN1CC[C@H]1CO)C(=O)O)c1cnn[nH]1 [Example 95b, (2S,4S)-5-(5′-Chloro-2′-fluorobiphenyl-4-yl)-2-((S)-2-hydroxymethyl-azetidin-1-ylmethyl)-4-[(3H-[1,2,3]triazole-4-carbonyl)amino]pentanoic Acid] | ≤ 1 |
| COCCCN[C@H](C[C@@H](Cc1ccc(-c2cc(Cl)ccc2F)cc1)NC(=O)c1c[nH]nn1)C(=O)O [Example 97a] | ≤ 1 |
| COCCN[C@H](C[C@@H](Cc1ccc(-c2cc(Cl)ccc2F)cc1)NC(=O)c1c[nH]nn1)C(=O)O [Example 98a, (2R,4R)-5-(5′-Chloro-2′-fluorobiphenyl-4-yl)-2-(2-methoxyethylamino)-4-[(1H-[1,2,3]triazole-4-carbonyl)amino]pentanoic Acid] | ≤ 1 |
| CN(C)CCOC[C@H](C[C@@H](Cc1ccc(-c2cc(Cl)ccc2F)cc1)NC(=O)c1c[nH]nn1)C(=O)O [Example 100, (2S,4S)-5-(5′-Chloro-2′-fluorobiphenyl-4-yl)-2-(2-dimethylamino-ethoxymethyl)-4-[(1H-[1,2,3]triazole-4-carbonyl)amino]pentanoic Acid] | ≤ 1 |
| CC1(O)CN(C[C@H](C[C@@H](Cc2ccc(-c3cc(Cl)ccc3F)cc2)NC(=O)c2c[nH]nn2)C(=O)O)C1 [Example 101b, (2S,4S)-5-(5′-Chloro-2′-fluorobiphenyl-4-yl)-2-(3-hydroxy-3-methylazetidin-1-ylmethyl)-4-[(1H-[1,2,3]triazole-4-carbonyl)amino]pentanoic Acid] | ≤ 1 |
| CC1(O)CN(C[C@@H](C[C@@H](Cc2ccc(-c3cc(Cl)ccc3F)cc2)NC(=O)c2c[nH]nn2)C(=O)O)C1 [Example 101c, (2R,4S)-5-(5′-Chloro-2′-fluorobiphenyl-4-yl)-2-(3-hydroxy-3-methylazetidin-1-ylmethyl)-4-[(1H-[1,2,3]triazole-4-carbonyl)amino]pentanoic Acid] | 1.26 to 3.16 |
| COC1CN(C[C@H](C[C@@H](Cc2ccc(-c3cc(Cl)ccc3F)cc2)NC(=O)c2c[nH]nn2)C(=O)O)C1 [Example 102b, (2S,4S)-5-(5′-Chloro-2′-fluorobiphenyl-4-yl)-2-(3-methoxyazetidin-1-ylmethyl)-4-[(1H-[1,2,3]triazole-4-carbonyl)amino]pentanoic Acid] | ≤ 1 |

same assay, conditions: recombinant human NEP, fluorogenic peptide substrate, 37° C.

| SMILES | pKi |
| --- | --- |
| NCCCCCC(=O)N[C@H](C[C@@H](Cc1ccc(-c2cc(Cl)ccc2F)cc1)NC(=O)c1c[nH]nn1)C(=O)O [Example 70, (2R,4R)-2-(6-Aminohexanoylamino)-5-(5′-chloro-2′-fluorobiphenyl-4-yl)-4-[(1H-[1,2,3]triazole-4-carbonyl)amino]pentanoic Acid] | ≧9.0 |
| CNCCCC(=O)N[C@H](C[C@@H](Cc1ccc(-c2cc(Cl)ccc2F)cc1)NC(=O)c1c[nH]nn1)C(=O)O [Example 71, (2R,4R)-5-(5′-Chloro-2′-fluorobiphenyl-4-yl)-2-(4-methylamino-butyrylamino)-4-[(1H-[1,2,3]triazole-4-carbonyl)amino]pentanoic Acid] | ≧9.0 |
| NCCCCC(=O)N[C@H](C[C@@H](Cc1ccc(-c2cc(Cl)ccc2F)cc1)NC(=O)c1c[nH]nn1)C(=O)O [Example 72, (2R,4R)-2-(5-Amino-pentanoylamino)-5-(5′-chloro-2′-fluorobiphenyl-4-yl)-4-[(1H-[1,2,3]triazole-4-carbonyl)amino]pentanoic Acid] | ≧9.0 |
| CN(C)CCCC(=O)N[C@H](C[C@@H](Cc1ccc(-c2cc(Cl)ccc2F)cc1)NC(=O)c1c[nH]nn1)C(=O)O [Example 73, (2R,4R)-5-(5′-Chloro-2′-fluorobiphenyl-4-yl)-2-(4-dimethylaminobutyrylamino)-4-[(1H-[1,2,3]triazole-4-carbonyl)amino]pentanoic Acid] | ≧9.0 |
| COC[C@H](C[C@@H](Cc1ccc(-c2cccc(Br)c2)cc1)NC(=O)c1cnn[nH]1)C(=O)O [Example 80, (2S,4S)-5-(3′-Bromobiphenyl-4-yl)-2-methoxymethyl-4-[(3H-[1,2,3]triazole-4-carbonyl)amino]pentanoic Acid] | ≧9.0 |
| NC(=O)C1CN(C[C@H](C[C@@H](Cc2ccc(-c3cc(Cl)ccc3F)cc2)NC(=O)c2cnn[nH]2)C(=O)O)C1 [Example 96b, (2S,4S)-2-(3-Carbamoylazetidin-1-ylmethyl)-5-(5′-chloro-2′-fluorobiphenyl-4-yl)-4-[(3H-[1,2,3]triazole-4-carbonyl)amino]pentanoic Acid] | ≧9.0 |

— US9593110B2, “Neprilysin inhibitors” (Theravence Biopharma R&D IP, LLC, priority 2014, dated 2017)
